Test results from patent US9683014B2, “Dipeptide mimetics of NGF and BDNF neurotrophins” (UCHREZHDENIE ROSSIISKOI AKADEMII MEDITSYNSKIKH NAUK …, priority 2009, dated 2017).
Like-named read-outs stand apart in the source and are kept apart here. Marks after values point to notes of the source that are not given here.

How the values were obtained:
[1] = test system: rats with ischemic cerebral infarction
[2] = test system: rats with photothrombosis of the prefrontal cortex
Description: Male outbred rats weighing 180-200 g were used.
Experimental stages: surgery for photothrombosis, evaluation of motor activity (before and at 9 days after photothrombosis); PAR conditioning and the retention test at 9 days after photothrombosis; animal sacrifice, excision and fixation of the brain; morphologic examination and ischemic zone volume calculation.
The test substance was administered intraperitoneally at a dose of 1 mg/kg using the following regimen: at 1 h after surgery, at 24 h after the first administration, at 4 days and 6 days after the first administration.
PAR conditioning was performed according to the following protocol: The latency time (LT) was defined as the time between the start of testing and the moment of crossing the hole dividing the light and dark compartments. On day 1 the rat was placed in the light compartment (a 100 W light bulb) and, having explored it for a certain time (LT to learning), crossed into the dark compartment. Thereafter the door leading to this compartment was closed, and the rat was allowed to stay there for 5 min. One hour later the procedure was repeated by taking the rat out of the dark compartment. On the next day this procedure was repeated twice with a 1 h interval. During the second visit by the rat to the dark compartment the door was closed and electric current was passed through the metal bars in the floor (1.3 mA, 50 Hz, 5 sec). The PAR conditioning was considered established when the LT was at least 300 sec. Animals with lower LT values were excluded from the experiments.
A bilateral focal ischemic infarction of the prefrontal cortex of the rat brain (the Fr1 and Fr2 fields according to the atlas of Paxinos and Watson, 1986) was produced by the photoinduced thrombosis method (Watson et al., 1985). Animals were anesthetized with chloral hydrate (300 mg/kg i.p.). The photosensitive dye Bengal red (Sigma Chemical Co.) was injected into the jugular vein (3% solution, 40 mg/kg). The animal's head was clamped in the stereotaxis device, and the periosteum was removed after a longitudinal incision of the skin.
A light guide (the output light beam diameter 3 mm) was placed at a distance of 1 mm from the skull surface using the following coordinates: 2.00 mm rostral of the bregma and 2.00 mm lateral of the sagittal suture. Cold light illumination (a xenon lamp source, 25 V, 250 W) was carried out for 15 min at either side. Sham-operated animals were subjected to the same procedure except for the Bengal red injection. To assess their functional status, the animals were evaluated for their motor activity (MA) in a RODEO-1 automatic unit with an observation time of 5 min. The MA was analyzed before and at 9 days after the photothrombosis of the prefrontal cortex.

[3] = test system: rats with ischemic cerebral infarction; settings: 7 days after surgery; 1 mg/kg i.p. x3
Hsp70 = experiment: Western blot of Hsp70 in HT-22 cells; assay type: cell-based, mouse; settings: 24 h after addition; GK-1, GK-2 10^−8 and 10^−5 M; GK-3 10^−6 M; GK-4 10^−7 M; GK-5 10^−6 M
Description: The amount of Hsp70, Hsp32 and pTrkA was determined in the cytoplasmic fraction of HT-22 neuronal cells. For heat shock proteins, a test compound was added to the culture 24 hours prior to testing, before the cells were washed off the culture liquid with PBS. For pTrkA, a test compound was added to the culture immediately prior to the cell lysis just for 1 or 2 min, before the cells were washed off the culture liquid with PBS. Then the cells were mixed with the lysis buffer (50 mM Tris-HCl, 5 mM EDTA, 1 mM DTT, 1% Triton X-100, pH 7.5) at 4° C. and lysed for 5 min, then scraped off, transferred into a 1.5 ml centrifuge tube and centrifuged at 13000 rpm and 4° C. for 10 min. The supernatant containing cytosolic proteins was assayed by electrophoresis and immunoblotting. Proteins were separated on a 10% polyacrylamide gel (PAAG) and transferred from PAAG onto a PVDF membrane by electroelution for 45 min. Western blots were pre-incubated for 1 h in a TBST solution containing 1% Tween-20 and supplemented with 5% (w/v) skim milk. Western blots were then incubated with the primary polyclonal anti-Hsp32 antibody diluted 1:1000 or primary monoclonal anti-Hsp70 antibody diluted 1:1000 or primary monoclonal anti-phosphorylated tyrosine kinase A antibody diluted 1:1000 for 1 hour. Then the blots were washed and incubated with a secondary antibody conjugated to horseradish peroxidase (diluted 1:2000) for 1 hour. The detection of Hsp70, Hsp32 and pTrkA was carried out by the ECL reaction on a Kodak film.

Wistar rats = settings: 1 mg/kg i.p. x7
Description: The experiments were carried out on male Wistar rats weighing 280-400 g. Animals were anesthetized and scalped followed by being placed in the stereotaxis device. A skewed incision was made in the skull 1 mm wide: the start point for incision was at the level of bregma (AP=0.0) and 2 mm lateral of it (L=±2); the end point for incision was 2 mm caudal of bregma and 1 mm lateral of it (AP=2.0, L=±1). Following the sawing of the skull bone, the dura mater was incised carefully in the sawcut area. A sterile curved needle was inserted into the incision to a depth of 6.2 mm from the bone surface (DV=−6.2). By the simultaneous use of two screws in the stereotaxis device, the needle was moved slowly almost to the end point of the skewed incision. Then the needle was lifted slowly from the incision. The procedure was repeated twice on each hemisphere. Sham operation was similar to the transection procedure except that the needle was inserted to a depth of 3 mm from the bone surface (DV=−3.0). The first injection of the test compound (1 mg/kg i.p.) in the treatment group or of distilled water in the control group was made 2 hours after the transection. Further injections were made every 48 hours. In the course of the experiment each animal received 7 injections of the test compound.
To detect behavioral abnormalities induced by the transection of the septo-hippocampal pathway, the open-field test was used. The choice of this test was based on the following studies: 1) Lamprea M. R., Cardenas F. P., Silveira R., Walsh T. J., Morato S. Effects of septal cholinergic lesion on rat exploratory behavior in an open-field. Braz. J. Med. Biol. Res. 2003, 36(2), 233-238; 2) Cassel J. S., Kelche C., Peterson G. M., Ballough G. P., Goepp I., Will B. Graft-induced behavioral recovery from subcallosal septohippocampal damage in rats depends on maturity stage of donor tissue. Neuroscience, 1991, 45(3), 571-586. Animals were tested in the open-field device 48 hours after the last injection of the test compound (at 14 days after surgery). Differences between experimental groups were assessed according to the Wilcoxon paired test. The data are expressed as the median values for the respective samples.

Compound: NCCCC[C@H](NC(=O)[C@H](CCC(=O)O)NC(=O)CCC(=O)O)C(=O)NCCCCCCNC(=O)[C@H](CCCCN)NC(=O)[C@H](CCC(=O)O)NC(=O)CCC(=O)O [GK-2, bis-(N-monosuccinyl-glutamyl-lysine) hexamethylenediamide]
- animals with swelling of the affected hemisphere ([1]; 1 mg/kg i.p. at 1, 24, 48 h post-ischemia, NMRT day 7, control group 46%): 9%
- mortality rate ([1]; 1 mg/kg i.p. at 1, 24, 48 h post-ischemia, control also 3): 3 animals
- ischemic lesion volume ([1]; 1 mg/kg i.p. x3, NMRT day 7, n=12, saline control 266±20): 222±16 mm^3
- reduction of lesion volume ([1]; 1 mg/kg i.p. x3, versus saline control): 16.5%
- retention of the PAR ([2]; 1 mg/kg i.p.): 100%
- latency time of PAR, individual rats ([2]; 1 mg/kg i.p. at 1 h, 24 h, 4 and 6 days, at 8 days after photothrombosis, saline 20-105, sham 300): 300 s
- latency time of PAR, group mean ([2]; 1 mg/kg i.p., n = 9, saline 59.2, sham 300): 300 s
- latency time of PAR ([2]; 1 mg/kg i.p., photothrombosis alone 59.2 sec): at least 300 sec
- reduction in use of the affected limb and simultaneous use of 2 forelimbs [3]: much less pronounced
- amount of Hsp70 (Hsp70): increase
- horizontal motor activity in the open-field test (median) (Wistar rats; 1st minute, 14 days after surgery, transection 11.5, sham 21): 12.5
- horizontal motor activity in the open-field test (median) (Wistar rats; 2nd minute, transection 12, sham 14): 11.5
- horizontal motor activity in the open-field test (median) (Wistar rats; 3rd minute, transection 19, sham 9.5): 15.5
- horizontal motor activity in the open-field test (median) (Wistar rats; 4th minute, transection 11.5, sham 9): 6.5*
